Results taken from PubChem BioAssay (NCI).
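Compound exposure: 48 hours, 5 concentrations, 96-well plates. TGI denotes the concentration required for complete inhibition of growth.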

How the values were obtained:
Assay in all cases: DTP human tumour cell line panel, 48 h
SK-MEL-2 melanoma = test system: SK-MEL-2 melanoma
K-562 leukemia = test system: K-562 leukemia
SF-268 CNS = test system: SF-268 CNS
CAKI-1 renal = test system: CAKI-1 renal
HS 578T breast = test system: HS 578T breast
MDA-MB-435 = test system: MDA-MB-435
HOP-62 NSCLC = test system: HOP-62 NSCLC
HL-60(TB) leukemia = test system: HL-60(TB) leukemia
SK-OV-3 ovarian = test system: SK-OV-3 ovarian
SR leukemia = test system: SR leukemia
A498 renal = test system: A498 renal
HCT-15 colon = test system: HCT-15 colon
IGROV1 ovarian = test system: IGROV1 ovarian
OVCAR-3 ovarian = test system: OVCAR-3 ovarian
UACC-62 melanoma = test system: UACC-62 melanoma
MDA-N = test system: MDA-N
SNB-75 CNS = test system: SNB-75 CNS
SF-295 CNS = test system: SF-295 CNS
MDA-MB-231 breast = test system: MDA-MB-231 breast
TK-10 renal = test system: TK-10 renal
MALME-3M melanoma = test system: MALME-3M melanoma
HCT-116 colon = test system: HCT-116 colon
SF-539 CNS = test system: SF-539 CNS
NCI/ADR-RES ovarian = test system: NCI/ADR-RES ovarian
NCI-H522 lung = test system: NCI-H522 lung
COLO 205 colon = test system: COLO 205 colon
CCRF-CEM leukemia = test system: CCRF-CEM leukemia
OVCAR-5 ovarian = test system: OVCAR-5 ovarian
M14 melanoma = test system: M14 melanoma
HCC-2998 colon = test system: HCC-2998 colon
NCI-H23 lung = test system: NCI-H23 lung
SK-MEL-5 melanoma = test system: SK-MEL-5 melanoma
A549 NSCLC = test system: A549 NSCLC
NCI-H460 lung = test system: NCI-H460 lung
DU-145 prostate = test system: DU-145 prostate
786-0 renal = test system: 786-0 renal
HT29 colon = test system: HT29 colon
UACC-257 melanoma = test system: UACC-257 melanoma
SN12C renal = test system: SN12C renal
NCI-H226 lung = test system: NCI-H226 lung
MCF7 breast = test system: MCF7 breast
EKVX NSCLC = test system: EKVX NSCLC
RXF 393 renal = test system: RXF 393 renal
BT-549 breast = test system: BT-549 breast
MOLT-4 leukemia = test system: MOLT-4 leukemia
OVCAR-4 ovarian = test system: OVCAR-4 ovarian
U251 CNS = test system: U251 CNS
T-47D breast = test system: T-47D breast
OVCAR-8 ovarian = test system: OVCAR-8 ovarian
PC-3 prostate = test system: PC-3 prostate
SNB-19 CNS = test system: SNB-19 CNS
UO-31 renal = test system: UO-31 renal
RPMI-8226 leukemia = test system: RPMI-8226 leukemia
ACHN renal = test system: ACHN renal
SK-MEL-28 melanoma = test system: SK-MEL-28 melanoma
SW-620 colon = test system: SW-620 colon
HOP-92 NSCLC = test system: HOP-92 NSCLC
LOX IMVI melanoma = test system: LOX IMVI melanoma
KM12 colon = test system: KM12 colon

## CCc1n[nH]c(=O)n1NC(=O)/C=C\C(=O)O
SK-MEL-2 melanoma
  TGI: > 100 µM
K-562 leukemia
  TGI: > 100 µM
SF-268 CNS
  TGI: > 100 µM
CAKI-1 renal
  TGI: > 100 µM
HS 578T breast
  TGI: > 100 µM
MDA-MB-435
  TGI: > 100 µM
HOP-62 NSCLC
  TGI: > 100 µM
HL-60(TB) leukemia
  TGI: > 100 µM
SK-OV-3 ovarian
  TGI: > 100 µM
SR leukemia
  TGI: > 100 µM
A498 renal
  TGI: > 100 µM
HCT-15 colon
  TGI: > 100 µM
IGROV1 ovarian
  TGI: > 100 µM
OVCAR-3 ovarian
  TGI: > 100 µM
UACC-62 melanoma
  TGI: > 100 µM
MDA-N
  TGI: > 100 µM
SNB-75 CNS
  TGI: > 100 µM
SF-295 CNS
  TGI: > 100 µM
MDA-MB-231 breast
  TGI: > 100 µM
TK-10 renal
  TGI: > 100 µM
MALME-3M melanoma
  TGI: > 100 µM
HCT-116 colon
  TGI: > 100 µM
SF-539 CNS
  TGI: > 100 µM
NCI/ADR-RES ovarian
  TGI: > 100 µM
NCI-H522 lung
  TGI: > 100 µM
COLO 205 colon
  TGI: > 100 µM
CCRF-CEM leukemia
  TGI: > 100 µM
OVCAR-5 ovarian
  TGI: > 100 µM
M14 melanoma
  TGI: > 100 µM
HCC-2998 colon
  TGI: > 100 µM
NCI-H23 lung
  TGI: > 100 µM
SK-MEL-5 melanoma
  TGI: > 100 µM
A549 NSCLC
  TGI: > 100 µM
NCI-H460 lung
  TGI: > 100 µM
DU-145 prostate
  TGI: > 100 µM
786-0 renal
  TGI: > 100 µM
HT29 colon
  TGI: > 100 µM
UACC-257 melanoma
  TGI: > 100 µM
SN12C renal
  TGI: > 100 µM
NCI-H226 lung
  TGI: > 100 µM
MCF7 breast
  TGI: > 100 µM
EKVX NSCLC
  TGI: > 100 µM
RXF 393 renal
  TGI: > 100 µM
BT-549 breast
  TGI: > 100 µM
MOLT-4 leukemia
  TGI: > 100 µM
OVCAR-4 ovarian
  TGI: > 100 µM
U251 CNS
  TGI: > 100 µM
T-47D breast
  TGI: > 100 µM
OVCAR-8 ovarian
  TGI: > 100 µM
PC-3 prostate
  TGI: > 100 µM

## CC(C)=CCC[C@H](C)[C@H]1CC[C@@H](C)c2cc(O)c(C)cc21
SK-MEL-2 melanoma
  TGI: 32.4 µM
K-562 leukemia
  TGI: 46.8 µM
SF-268 CNS
  TGI: 31.2 µM
CAKI-1 renal
  TGI: 31.9 µM
HS 578T breast
  TGI: 37.8 µM
SNB-19 CNS
  TGI: 31.6 µM
MDA-MB-435
  TGI: 38.8 µM
HOP-62 NSCLC
  TGI: 35.6 µM
HL-60(TB) leukemia
  TGI: 41.7 µM
SK-OV-3 ovarian
  TGI: 35.4 µM
UO-31 renal
  TGI: 28.2 µM
RPMI-8226 leukemia
  TGI: 56.2 µM
A498 renal
  TGI: 30.7 µM
HCT-15 colon
  TGI: 35.1 µM
IGROV1 ovarian
  TGI: 31.4 µM
OVCAR-3 ovarian
  TGI: 35.3 µM
UACC-62 melanoma
  TGI: 27.9 µM
MDA-N
  TGI: 32.1 µM
SNB-75 CNS
  TGI: 38.6 µM
SF-295 CNS
  TGI: 32.2 µM
MDA-MB-231 breast
  TGI: 34 µM
ACHN renal
  TGI: 30.6 µM
TK-10 renal
  TGI: 32.8 µM
MALME-3M melanoma
  TGI: 33.4 µM
HCT-116 colon
  TGI: 32.9 µM
SF-539 CNS
  TGI: 33.8 µM
SK-MEL-28 melanoma
  TGI: 36.8 µM
SW-620 colon
  TGI: 56.6 µM
NCI/ADR-RES ovarian
  TGI: 36.7 µM
NCI-H522 lung
  TGI: 32.4 µM
COLO 205 colon
  TGI: 34.3 µM
CCRF-CEM leukemia
  TGI: 68 µM
OVCAR-5 ovarian
  TGI: 30.7 µM
M14 melanoma
  TGI: 33.9 µM
HCC-2998 colon
  TGI: 33.7 µM
HOP-92 NSCLC
  TGI: 32.2 µM
NCI-H23 lung
  TGI: 33 µM
SK-MEL-5 melanoma
  TGI: 30.4 µM
LOX IMVI melanoma
  TGI: 32 µM
A549 NSCLC
  TGI: 32.6 µM
NCI-H460 lung
  TGI: 33.7 µM
DU-145 prostate
  TGI: 37.9 µM
786-0 renal
  TGI: 33.3 µM
HT29 colon
  TGI: 37.2 µM
UACC-257 melanoma
  TGI: 31.7 µM
SN12C renal
  TGI: 29.8 µM
NCI-H226 lung
  TGI: 33.3 µM
MCF7 breast
  TGI: 32.5 µM
EKVX NSCLC
  TGI: 33.4 µM
RXF 393 renal
  TGI: 42.2 µM
BT-549 breast
  TGI: 32.7 µM
MOLT-4 leukemia
  TGI: 51 µM
OVCAR-4 ovarian
  TGI: 31.5 µM
U251 CNS
  TGI: 31.1 µM
T-47D breast
  TGI: 36.8 µM
OVCAR-8 ovarian
  TGI: 35.6 µM
KM12 colon
  TGI: 37.5 µM
PC-3 prostate
  TGI: 31.3 µM
